Test results taken from paper PMC8635778 (Angewandte Chemie (International ed. in English), 2020).

Columns and labels:
[1] = mouse, in vivo, iv
[2] = system: papillary RCC cell line (ACHN) orthotopic xenograft; assay: fluorescence imaging of orthotopic papillary RCC xenograft; assay type: in vivo, mice; conditions: cancerous vs normal kidney tissue

## CC1(C)C(/C=C/C=C/C=C/C=C2\N(CCCCS(=O)(=O)O)c3ccc4ccccc4c3C2(C)C)=[N+](CCCCS(=O)(=O)[O-])c2ccc3ccccc3c21 [ICG, indocyanine green]
[1]
  amount found in the feces: 85.3 % ID
  amount in feces, times higher than ICG-PEG45: 29.8 times
[2]
  hyperfluorescent imaging of RCC in the kidneys (in words): failed to hyperfluorescently light up RCC
